The conditions of the data set: human, 168 h.

*1 amine or outer side, *2 acyl side, *3 side chain or, on linkers, in order; H or OH if unused. Where a SMILES comes first, the peptide text is derived from it. [ ]: non-standard residue; d: D form. X1 = NS(=O)(=O)c1ccc(-c2cn(CCCC[C@H](N[*:1])C(=O)[*:2])nn2)cc1

Procedure: A solution of the peptide structure diluted to a final concentration of 50 μm in 1 mL of 100% pure human serum (Cat #S1, Merk) or plasma (Cat #70039.1, [sequence] Technologies) [or 100% pure mouse serum (Sigma, Cat #S7273) or plasma (Rockland, Cat #D508-06-0050)] was divided into 100 μL. Then, while stored at 37° C., analysis was performed once a day for 7 days using the LC-MS (1260 Infinity II, Infinity Lab LC/MSD, Aglient) equipped with the Agilent Poroshell 120 EC-C18 column (4.6×50 mm, 2.7 μm). Before injecting the sample into the LC, 100 μL of ACN was added to the serum or plasma solution containing the peptides, then put into the centrifuge and spun to settle the precipitate, and only 10 μL of the supernatant was used for analysis.

In the case of `C[C@H](O)[C@H]1NC(=O)[C@@H](Cc2ccccc2)NC(=O)[C@@H](Cc2c[nH]cn2)NC(=O)[C@@H](Cc2ccccc2)NC(=O)[C@@H](CCCNC(=N)N)NC(=O)[C@@H](CCCNC(=N)N)NC(=O)[C@H](CCCCn2cc(-c3ccc(S(N)(=O)=O)cc3)nn2)NC(=O)[C@H](CCC(N)=O)NC(=O)CNC(=O)[C@@H](Cc2c[nH]cn2)NC1=O` [No. 35] (cyclo(Q[X1][dR][dR][dF][dH][dF][dT][dH]G)), the Stability in plasma result is “not degraded at all and was completely maintained even after 6 days”.

The values are drawn from patent US12486304B2, “Peptide ligand targeting carbonic anhydrase IX, peptide construct comprising same, and uses thereof” (priority 2022, dated 2025).
